Laboratory results: ChEMBL document CHEMBL1135313, “Bromotyrosine-derived natural and synthetic products as inhibitors of mycothiol-S-conjugate amidase” (Bioorg Med Chem Lett, 2002)

Biological target: T1, Mycothiol S-conjugate amidase (Mycobacterium tuberculosis, UniProt P9WJN1)
T1 sequence (P9WJN1 whole entry): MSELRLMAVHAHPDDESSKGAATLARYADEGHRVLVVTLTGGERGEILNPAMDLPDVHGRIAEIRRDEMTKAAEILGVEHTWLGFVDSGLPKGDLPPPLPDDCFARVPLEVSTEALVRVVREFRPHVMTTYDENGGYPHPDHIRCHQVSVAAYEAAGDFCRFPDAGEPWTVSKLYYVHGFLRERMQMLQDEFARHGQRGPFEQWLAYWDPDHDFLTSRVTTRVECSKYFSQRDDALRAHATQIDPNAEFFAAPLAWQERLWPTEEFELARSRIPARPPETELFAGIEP
Test: Inhibition of Mycothiol -S-conjugate amidase (MCA) from mycobacterium tuberculosis

SMILES | IC50 [µM]
NCCCOc1c(Br)cc(C/C(=N\O)C(=O)NCCc2c[nH]c(N)n2)cc1Br | 36
COC1=C(Br)C[C@]2(C=C1Br)CC(C(=O)NCCc1c[nH]c(N)n1)=NO2 | 100
Cc1cccc(C)c1SSCCNC(=O)/C(Cc1cccc(Br)c1)=N/O | 65
O=C(NCCSSc1ccc(F)cc1)/C(Cc1cccc(Br)c1)=N\O | 90
Nc1ccc(SSCCNC(=O)/C(Cc2cc(F)cc(F)c2)=N\O)cc1 | 450
COC1=C(Br)[C@@H](O)[C@]2(C=C1Br)CC(C(=O)NCCc1[nH]c(N)nc1-c1cc(O)c3ncc(O)c(O)c3c1O)=NO2 | 2
O=C(NCCSSc1ccc(F)cc1)/C(Cc1cc(F)cc(F)c1)=N\O | 2720
Nc1ccc(SSCCNC(=O)/C(Cc2ccc(O)c(Cl)c2)=N\O)cc1 | 35
O=C(NCCSSc1ccc(F)cc1)/C(Cc1ccc(O)c(Cl)c1)=N\O | 37
Nc1ccc(SSCCNC(=O)/C(Cc2cccc(Br)c2)=N\O)cc1 | 185
CC(=O)N[C@H](CS)C(=O)NC1C(OC2C(O)C(O)C(O)C(O)C2O)OC(CO)C(O)C1O (stereo partly specified) | ~1
CC(=O)N[C@H](CSCc1c(C)c(=O)n2c(=O)c(C)c(C)n12)C(=O)NC1C(OC2C(O)C(O)C(O)C(O)C2O)OC(CO)C(O)C1O (stereo partly specified) [MYCOTHIOL BIMANE] | ~1
COC1=C(Br)C[C@]2(OC=C1Br)ON=C(C(=O)NCCOc1c(Br)cc(CCN)cc1Br)[C@@H]2O | 20
O=C(NCCSSCCNC(=O)/C(Cc1ccc(O)c(Br)c1)=N/O)/C(Cc1ccc(O)c(Br)c1)=N/O [PSAMMAPLIN A] | 2.8
COC1=C(Br)C[C@]2(OC=C1Br)ON=C(C(=O)NCCOc1c(Br)cc(C(O)CN)cc1Br)[C@@H]2O (stereo partly specified) | 26
N=C(N)CCCCNC(=O)/C(Cc1cc(Br)c(OCCCN)c(Br)c1)=N/O | 2.8
